Where two headings read alike, the source gives them in different places.
Legend:
[1] = tested on: Pseudomonas aeruginosa efflux− (MB9799), IMP-1; type: cell-based; details: efflux− MB9799; imipenem at 2 μg/mL; in the presence of a class A, C, D serine β-lactamase inhibitor closely related to relebactam
In short: (§1)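 Steps: add fixed imipenem and/or ceftazidime (usually CLSI breakpoint) and fixed AmpC-directed class A/C inhibitor to microbroth MIC wells; titrate MBL inhibitor; record concentration regaining susceptibility for each PAO1-derived strain; divide efflux+ by efflux− value.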

VIM-1 = VIM-1 (Pseudomonas aeruginosa (strain ATCC 15692 / DSM 22644 / CIP 104116 / JCM 14847 / LMG 12228 / 1C / PRS 101 / PAO1), UniProt A0A0F7KYQ8); assay: biochemical; details: CCF2-FA substrate, 30 pM enzyme, 2 hours at 25° C.
In short: (§2)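 Two-hour, 25° C incubation of enzyme with inhibitor and CCF2-FA (7-hydroxycoumarin–cephalosporin–fluorescein). Fluorescence read-out; IC50 via 4-parameter fit.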

IMP-1 = IMP-1 (Serratia marcescens, UniProt P52699); assay: biochemical; type: biochemical; details: fluorescence assay, CCF2-FA substrate, 2 pM enzyme, 2 hours at 25° C.; read-out: IMP-1 IC50
In short: as §2

NDM-1 = NDM-1 (Klebsiella pneumoniae, UniProt C7C422); assay: biochemical; type: biochemical; details: fluorescence assay, CCF2-FA substrate, 1 pM enzyme, 2 hours at 25° C.; read-out: NDM-1 IC50
In short: as §2

[2] = tested on: Pseudomonas aeruginosa efflux+ (MB9798), IMP-1; type: cell-based; design: Concentration of metallo-β-lactamase inhibitor which restores susceptibility of efflux + (MB9798) strain to imipenem: unit not given here; details: efflux+ MB9798; imipenem at 2 μg/mL; in the presence of a class A, C, D serine β-lactamase inhibitor closely related to relebactam
In short: as §1

[3] = tested on: Klebsiella pneumoniae expressing VIM-1 (IHMA599644); type: cell-based; details: VIM-1 strain IHMA599644, with imipenem 1 μg/ml, 95% inhibition of growth
In short: (§3)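 Growth by absorbance after 22–24 h at 35°C defined the read-out, with imipenem fixed at 1 μg/ml alongside compound. Inocula came from overnight blood-agar colonies at 35°C, resuspended in saline and diluted 1:100 in 1.1×CAMHB.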

[4] = tested on: Serratia marcescens expressing IMP-1 (CL5741); type: cell-based; details: IMP-1 strain CL5741, with imipenem 1 μg/ml, 95% inhibition of growth
In short: as §3

[5] = tested on: Escherichia coli expressing NDM-1 (CLB30005, CLB30016); type: cell-based; details: NDM-1 strain, with imipenem 1 μg/ml, 95% inhibition of growth
In short: as §3

[6] = tested on: Pseudomonas aeruginosa MB9798 vs MB9799; details: fold difference between efflux+ (MB9798) and efflux− (MB9799) strains; imipenem at 2 μg/mL
In short: as §1

[7] = fluorescence assay, read-out: VIM-1 IC50

Sequence of IMP-1 (P52699 whole entry, looked up, species assumed): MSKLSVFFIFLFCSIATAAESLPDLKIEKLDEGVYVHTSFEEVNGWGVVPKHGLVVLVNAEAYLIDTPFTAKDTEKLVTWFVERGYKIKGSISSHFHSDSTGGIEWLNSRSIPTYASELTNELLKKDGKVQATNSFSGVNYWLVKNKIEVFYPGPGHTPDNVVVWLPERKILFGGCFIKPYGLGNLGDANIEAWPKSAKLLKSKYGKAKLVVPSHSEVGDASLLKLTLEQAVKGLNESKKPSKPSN
Sequence of NDM-1 (C7C422 whole entry, looked up, species assumed): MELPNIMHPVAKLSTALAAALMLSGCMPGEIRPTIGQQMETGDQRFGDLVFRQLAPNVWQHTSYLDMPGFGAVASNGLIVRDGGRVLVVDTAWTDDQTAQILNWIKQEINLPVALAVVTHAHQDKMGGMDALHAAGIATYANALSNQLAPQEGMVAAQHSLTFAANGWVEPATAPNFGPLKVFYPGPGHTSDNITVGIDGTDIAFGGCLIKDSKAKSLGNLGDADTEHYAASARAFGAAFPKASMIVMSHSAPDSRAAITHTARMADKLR

SMILES | Concentration of metallo-β-lactamase inhibitor which restores susceptibility of efflux − (MB9799) strain to imipenem [1] | IC50 (VIM-1; [7]) [pM] | IC50 (IMP-1) [pM] | IC50 (NDM-1) [pM] | Concentration of metallo-β-lactamase inhibitor which restores susceptibility of efflux + (MB9798) strain to imipenem [2] | Klebsiella pneumoniae MITC95 [3] [µM] | Serratia marcescens MITC95 [4] [µM] | Escherichia coli MITC95 [5] [µM] | Efflux ratio [6] | IC50 (VIM-1; VIM-1 IC50, fluorescence assay) [pM]
NCCNS(=O)(=O)c1ccc(-c2cccc3[nH]c(C(F)(F)CN)nc23)c(-c2nn[nH]n2)c1S(N)(=O)=O [Example 445, 4-(2-(2-amino-1,1-difluoroethyl)-1H-benzo[d]imidazol-4-yl)-N1-(2-aminoethyl)-3-(2H-tetrazol-5-yl)benzene-1,2-disulfonamide] | 1.563 | 114 | 370 | 44.6 | 1.563 | 3.125 | 3.125 | 3.125 | 1.00 | –
NCC(F)(F)c1nc2c(-c3ccc(S(=O)(=O)N[C@H]4CCNC4)c(S(N)(=O)=O)c3-c3nn[nH]n3)cccc2[nH]1 [Example 446, (S)-4-(2-(2-amino-1,1-difluoroethyl)-1H-benzo[d]imidazol-4-yl)-N1-(pyrrolidin-3-yl)-3-(2H-tetrazol-5-yl)benzene-1,2-disulfonamide] | 1.563 | 153 | 446 | 56.9 | 3.125 | 3.125 | 3.125 | 1.563 | 2.00 | –
NCCNC(=O)c1cc(Cl)cc(-c2ccc(S(=O)(=O)NCCN)c(S(N)(=O)=O)c2-c2nn[nH]n2)c1N [Example 447, 2-Amino-N-(2-aminoethyl)-4′-(N-(2-aminoethyl)sulfamoyl)-5-chloro-3′-sulfamoyl-2′-(2H-tetrazol-5-yl)-[1,1′-biphenyl]-3-carboxamide] | 0.7813 | – | 1600 | 646 | 1.563 | 1.563 | 0.7813 | 0.7813 | 2.00 | 180
Nc1nc2c(-c3ccc(S(=O)(=O)N[C@@H]4C[C@H]4N)c(S(N)(=O)=O)c3-c3nnn[nH]3)cccc2[nH]1 [Example 448, 4-(2-amino-1H-benzo[d]imidazol-4-yl)-N^1-((1R,2R)-2-aminocyclopropyl)-3-(1H-tetrazol-5-yl)benzene-1,2-disulfonamide] | 3.125 | 557 | 988 | 151 | 1.563 | 6.25 | 1.563 | 0.7813 | 0.50 | –
CN(CCN)S(=O)(=O)c1ccc(-c2cccc3[nH]c(N)nc23)c(-c2nn[nH]n2)c1S(N)(=O)=O [Example 449, 4-(2-amino-1H-benzo[d]imidazol-4-yl)-N^1-(2-aminoethyl)-N^1-methyl-3-(2H-tetrazol-5-yl)benzene-1,2-disulfonamide] | 1.563 | – | 11800 | 7730 | 6.25 | 12.5 | 1.563 | 0.7813 | 4.00 | 27800
NCCNC(=O)c1cc(-c2ccc(S(=O)(=O)NCCN)c(S(N)(=O)=O)c2-c2nn[nH]n2)ccc1N [Example 451, 4-Amino-N-(2-aminoethyl)-4′-(N-(2-aminoethyl)sulfamoyl)-3′-sulfamoyl-2′-(2H-tetrazol-5-yl)-[1,1′-biphenyl]-3-carboxamide] | 0.7813 | 557 | 4020 | 1700 | 1.563 | 0.7813 | 0.7813 | 0.7813 | 2.00 | –
NCCNS(=O)(=O)c1ccc(-c2ccccc2NC(=O)CN)c(-c2nn[nH]n2)c1S(N)(=O)=O [Example 452] | 1.563 | 994 | 6210 | 1720 | 6.25 | 6.25 | 3.125 | 3.125 | 4.00 | –
NCCNS(=O)(=O)c1ccc(-c2cccc(NC(=O)[C@@H](N)CN)c2)c(-c2nn[nH]n2)c1S(N)(=O)=O [Example 453, (S)-2,3-Diamino-N-(4′-(N-(2-aminoethyl)sulfamoyl)-3′-sulfamoyl-2′-(2H-tetrazol-5-yl)-[1,1′-biphenyl]-3-yl)propanamide] | 1.563 | 244 | 3520 | 870 | 3.125 | 3.125 | 3.125 | 1.563 | 2.00 | –
NCCNS(=O)(=O)c1ccc(-c2cccc(NC(=O)[C@H](N)CO)c2)c(-c2nn[nH]n2)c1S(N)(=O)=O [Example 454, (R)-2-amino-N-(4′-(N-(2-aminoethyl)sulfamoyl)-3′-sulfamoyl-2′-(2H-tetrazol-5-yl)-[1,1′-biphenyl]-3-yl)-3-hydroxypropanamide] | 1.563 | 262 | 3460 | 757 | 3.125 | 6.25 | 3.125 | 1.563 | 2.00 | –
NCCNS(=O)(=O)c1ccc(-c2cccc3c2CCCN3)c(-c2nn[nH]n2)c1S(N)(=O)=O [Example 455, N1-(2-Aminoethyl)-4-(1,2,3,4-tetrahydroquinolin-5-yl)-3-(2H-tetrazol-5-yl)benzene-1,2-disulfonamide] | 1.563 | 162 | 530 | 216 | 12.5 | 3.125 | 3.125 | 1.563 | 8.00 | –
NCCNc1cc(-c2ccc(S(=O)(=O)NCCN)c(S(N)(=O)=O)c2-c2nn[nH]n2)ccn1 [Example 456, N1-(2-Aminoethyl)-4-(2-((2-aminoethyl)amino)pyridin-4-yl)-3-(2H-tetrazol-5-yl)benzene-1,2-disulfonamide] | 0.7813 | 545 | 3770 | 1560 | 1.563 | 1.563 | 0.7813 | 0.7813 | 2.00 | –
NCCNc1cc(-c2ccc(S(=O)(=O)NCCO)c(S(N)(=O)=O)c2-c2nn[nH]n2)ccn1 [Example 457, 4-(2-((2-aminoethyl)amino)pyridin-4-yl)-N1-(2-hydroxyethyl)-3-(2H-tetrazol-5-yl)benzene-1,2-disulfonamide] | 1.563 | 490 | 5300 | 3680 | 50 | 6.25 | 3.125 | 1.563 | 31.99 | –

— patent publication US10221163B2 (priority 2015, dated 2019)
